Columns and labels:
[1] = system: AGS human gastric cancer cell line with KRAS G12D mutation; test: Cell proliferation inhibition experiment, 3D CellTiter-Glo, AGS; type: cell-based; details: AGS cells, 3D spheroid, 5 days
From the text: (§1) AsPC-1 was purchased from ATCC, Article No.: CRL-1682; AGS was purchased from ATCC, Article No.: CRL-1739; RPMI1640 was purchased from Gibco, Article No.: 11875-093 2235123; F12K was purchased from Gibco, Article No.: 21127-022; FBS was purchased from Gibco, Article No.: 10099-141C; the trypsin (containing EDTA) was purchased from Gibco, Article No.: 25200-072; CellTiter Glo-3D was purchased from Progema, Article No.: G9683; the 384-well spheroid plate was purchased from Corning, Article No.: 3830; the white-bottom opaque 384-well plate was purchased from Corning, Article No.: 3570; the cell counter was purchased from CHEMOMETEC, model: NC-200; the microplate reader was purchased from PerkinElmer, model: Envison;
(§2) AsPC-1, an endogenous human pancreatic cancer cell AsPC-1 with KRAS^G12D mutation, was cultured in RPMI-1640 medium containing 10% FBS. AGS, a human gastric cancer cell line with KRAS^G12D mutation, was cultured in F-12K medium containing 10% FBS. Cells in logarithmic growth period were digested with trypsin (containing EDTA), collected and counted. 800 AsPC-1 cells/well or 400 […] were inoculated in a 384-well spheroid plate, and cultured overnight in an incubator with 5% CO2 to establish a 3D cell model. 1000× compound stock solutions with gradient concentrations of 3.16 times were prepared with DMSO, and 100-fold diluted to 10× compound stock solutions with the culture medium. The 10× compound stock solution was added to each cell culture well on the second day after cell inoculation, to give a final concentration of 1× and DMSO content of 0.1%. DMSO was used as the control, and the culture medium was used as the blank. After the compound was added, the cells were cultured for 5 days. 30 μl CellTiter-Glo working solution was added to each well, and mixed uniformly. The cells were incubated for 30 min, and allowed to stand at room temperature for 30 min. 40 μl of the mixture was transferred to a white-bottom opaque 384-well plate, and the luminescence was read on a microplate reader. The inhibition rate on cell proliferation was calculated by a formula: IR (%)=(RLU of control−RLU of compound)/(RLU of control−RLU of blank)×100%. The gradient concentrations of the compound and the corresponding inhibition rates were fitted by using XLFit four-parameter method, and the IC50 value was calculated. […] The results of some exemplary compounds are shown in Table 2 below (—means not tested).

AGS p-ERK = test: Cell assay for p-ERK (HTRF, Advance ERK phospho-T202/Y204 kit); type: cell-based, human; details: AGS cells (KRAS G12D), 3 hrs with compound, inhibition of p-ERK level
Experimental: AGS was purchased from ATCC, Article No.: CRL-1739; F12K was purchased from Gibco, Article No.: 21127-022; FBS was purchased from Gibco, Article No.: 10099-141C; the trypsin (containing EDTA) was purchased from Gibco, Article No.: 25200-072; DMSO was purchased from VWRAMRESCO, Article No.: 0231-500ML; the 96-well cell culture plate was purchased from Corning, Article No.: 3599; the white-bottom opaque 96-well plate was purchased from Cisbio, Article No.: 66PL96025; Advance ERK phospho-T202/Y204 kit was purchased from Cisbio, Article No.: 64AERPEH; the cell counter was purchased from CHEMOMETEC, model: NC-200; the microplate reader was purchased from PerkinElmer, model: Envison.
AGS, an endogenous human gastric adenocarcinoma cell line with KRAS^G12D mutation, was cultured in F12K+10% FBS medium. On the first day of the experiment, cells in logarithmic growth period were digested with trypsin (containing EDTA), collected and counted, and about 20,000 cells/well were inoculated in a 96-well cell culture plate and cultured overnight in an incubator with 5% CO2. 1000× compound stock solutions with gradient concentrations of 3.16 times were prepared with DMSO, and 200-fold diluted to 5× compound stock solutions with the above culture medium. The 5× compound stock solution was added to each cell culture well on the second day after cell inoculation, to give a final concentration of 1× and DMSO content of 0.1%. DMSO was used as experimental control. After adding the compound, the cells were continuously cultured for 3 hrs. Then, the culture medium in the well was removed, and 50 μl/well of cell lysis buffer (from Advanced ERK phospho-T202/Y204 kit, the same hereinafter) was added, and mixed uniformly. The cells were cultured for 30 min. Then 16 μl of the mixture was transferred to a white-bottom opaque 96-well plate, and 16 μl of the cell lysis buffer was added to an additional well and used as a blank. After that, 4 μl of p-ERK HTRF antibody mixed solution (from Advanced ERK Phos Pho-T202/Y204 Kit) was added to each well. After incubation for 4 hrs, the fluorescence value (RLU) of HTRF was read on a microplate reader. The inhibition rate of the compound on p-ERK level was calculated by the formula IR (%)=(RLU of control−RLU of compound)/(RLU of control−RLU of blank)×100%. The compound concentration and the corresponding inhibition rate on p-ERK level in the cells were fitted by using Prism 8 four-parameter method, and the IC50 value was calculated.

[2] = system: AsPC-1 human pancreatic cancer cell with KRAS G12D mutation; test: Cell proliferation inhibition experiment, 3D CellTiter-Glo, AsPC-1; type: cell-based; details: AsPC-1 cells, 3D spheroid, 5 days
From the text: as §1, §2

Molecule	IC50 ([1]; Homo sapiens, 120 h)	IC50 (AGS p-ERK; Homo sapiens)	IC50 ([2]; Homo sapiens, ASPC1, 120 h)	IC50 [1]	IC50 (AGS p-ERK)	IC50 [2]
C#Cc1cccc2cc(N)cc(-c3nc4c5c(nc(OCC67CCCN6CCC7=C(F)F)nc5c3F)N3C[C@H]5CC[C@H](N5)[C@H]3[C@H](C)O4)c12 (stereo partly drawn) [Z745, 4-((5S,5aS,6S,9R)-12-((1-(difluoromethylene)tetrahydro-1H-pyrrolizin-7a(5H)-yl)methoxy)-1-fluoro-5-methyl-5a,6,7,8,9,10-hexahydro-5H-4-oxa-3,10a,11,13,14-pentaaza-6,9-methanonaphtho[1,8-ab]hepten-2-yl)-5-ethynylnaphthalen-2-amine]	3.95 nM	0.84 nM	4.48 nM	–	–	–
C#Cc1cccc2cc(N)cc(-c3nc4c5c(nc(OCC67CC(F)(F)CN6CC=C7C)nc5c3F)N3C[C@H]5CC[C@H](N5)[C@H]3[C@H](C)O4)c12 (stereo partly drawn) [Z748]	23.1 nM	4.63 nM	12.9 nM	–	–	–
C#Cc1c(F)ccc2cccc(-c3nc4c5c(nc(OC[C@]67CCCN6CC=C7C)nc5c3F)N3C[C@H]5CC[C@H](N5)[C@H]3[C@H](C)O4)c12 [Z749]	7.13 nM	1.91 nM	11.5 nM	–	–	–
C#Cc1cccc2cc(N)c(F)c(-c3nc4c5c(nc(OCC6(CN7CCOCC7)CC6)nc5c3F)N3C[C@H]5CC[C@H](N5)[C@H]3[C@H](C)O4)c12 [Z957, 5-ethynyl-3-fluoro-4-((5S,5aS,6S,9R)-1-fluoro-5-methyl-12-((1-(morpholinemethyl)cyclopropyl)methoxy)-5a,6,7,8,9,10-hexahydro-5H-4-oxa-3,10a,11,13,14-pentaaza-6,9-methanonaphtho[1,8-ab]hepten-2-yl)naphthalen-2-amine]	7.61 nM	0.97 nM	6.51 nM	–	–	–
C#Cc1c(F)ccc2cccc(-c3cc4nc(OC[C@]56CCCN5CCC6=C)nc5c4c(n3)O[C@@H](C)[C@@H]3[C@@H]4CC[C@H](CN53)N4)c12 [Z958, (5S,5aS,6S,9R)-2-(8-ethynyl-7-fluoronaphthalen-1-yl)-5-methyl-12-(((R)-1-methylenetetrahydro-1H-pyrrolizin-7a(5H)-yl)methoxy)-5a,6,7,8,9,10-hexahydro-5H-4-oxy-3,10a,11,13,14-pentaaza-6,9-methanonaphtho[1,8-ab]heptene]	45.6 nM	29.2 nM	69.5 nM	–	–	–
C#Cc1cccc2cc(N)cc(-c3nc4c5c(nc(OC[C@]67CCCN6CCC7=C(F)F)nc5c3F)N3C[C@H]5CC[C@H](N5)[C@H]3[C@H](C)O4)c12 [Z959, 4-((5S,5aS,6S,9R)-12-(((R)-1-(difluoromethylene)tetrahydro-1H-pyrrolizin-7a(5H)-yl)methoxy)-1-fluoro-5-methyl-5a,6,7,8,9,10-hexahydro-5H-4-oxa-3,10a,11,13,14-pentaaza-6,9-methanonaphtho[1,8-ab]hepten-2-yl)-5-ethynylnaphthalen-2-amine]	7.27 nM	1.59 nM	7.21 nM	–	–	–
C=C1CCN2CCC[C@]12COc1nc2c3c(nc(-c4cc(N)cc(Cl)c4C(F)(F)F)c(F)c3n1)O[C@@H](C)[C@@H]1[C@@H]3CC[C@H](CN21)N3 [Z963, 3-chloro-5-((5S,5aS,6S,9R)-1-fluoro-5-methyl-12-(((R)-1-methylenetetrahydro-1H-pyrrolizin-7a(5H)-yl)methoxy)-5a,6,7,8,9,10-hexahydro-5H-4-oxa-3,10a,11,13,14-pentaaza-6,9-methanonaphtho[1,8-ab]heptadien-2-yl)-4-(trifluoromethyl) aniline]	–	–	–	0.21 nM	0.39 nM	1.69 nM
[2H]C([2H])([2H])[C@@H]1Oc2nc(-c3cc(N)cc4cccc(C#C)c34)c(F)c3nc(OCC4(CN5CC[C@@H](F)C5)CC4)nc(c23)N2C[C@H]3CC[C@H](N3)[C@@H]12 [Z964, 5-ethynyl-4-((5S,5aS,6S,9R)-1-fluoro-12-((1-(((R)-3-fluoropyrrolidin-1-yl)methyl)cyclopropyl)methoxy)-5-(methyl-d3)-5a,6,7,8,9,10-hexahydro-5H-4-oxa-3,10a,11,13,14-pentaaza-6,9-methanonaphtho[1,8-ab]hepten-2-yl)naphthalen-2-amine]	0.51 nM	0.38 nM	1.58 nM	–	–	–
[2H]C([2H])([2H])[C@@H]1Oc2nc(-c3cc(N)cc4cccc(C#C)c34)c(F)c3nc(OC[C@@]45CCCN4CC(=C(F)F)C5)nc(c23)N2C[C@H]3CC[C@H](N3)[C@@H]12 [Z1044, 4-((5S,5aS,6S,9R)-12-(((S)-2-(difluoromethylene)tetrahydro-1H-pyrrolizin-7a(5H)-yl)methoxy)-1-fluoro-5-(methyl-d3)-5a,6,7,8,9,10-hexahydro-5H-4-oxa-3,10a,11,13,14-pentaaza-6,9-methanonaphtho[1,8-ab]hepten-2-yl)-5-ethynylnaphthalen-2-amine]	0.53 nM	0.34 nM	0.92 nM	–	–	–
[2H]C([2H])([2H])[C@@H]1Oc2nc(-c3cc(N)cc(Cl)c3C(F)(F)F)c(F)c3nc(OC[C@]45CCCN4CCC5=C)nc(c23)N2C[C@H]3CC[C@H](N3)[C@@H]12 [Z1060, 3-chloro-5-((5S,5aS,6S,9R)-1-fluoro-5-(methyl-d3)-12-(((R)-1-methylenetetrahydro-1H-pyrrolizin-7a(5H)-yl)methoxy)-5a,6,7,8,9,10-hexahydro-5H-4-oxo-3,10a,11,13,14-pentaaza-6,9-methanonaphtho[1,8-ab]hepten-2-yl)-4-(trifluoromethyl) aniline]	0.19 nM	0.72 nM	1.63 nM	–	–	–
C[C@@H]1Oc2nc(-c3cc(N)cc(Cl)c3C(F)(F)F)cc3nc(OC[C@@]45CCCN4CC(=C(F)F)C5)nc(c23)N2C[C@H]3CC[C@H](N3)[C@@H]12 [Z1085, 3-chloro-5-((5S,5aS,6S,9R)-12-(((S)-2-(difluoromethylene)tetrahydro-1H-pyrrolizin-7a(5H)-yl)methoxy)-5-methyl-5a,6,7,8,9,10-hexahydro-5H-4-oxa-3,10a,11,13,14-pentaaza-6,9-methanonaphtho[1,8-ab]hepten-2-yl)-4-(trifluoromethyl) aniline]	0.88 nM	0.78 nM	3.04 nM	–	–	–
(5S,5aS,6S,9R)-12-((2,6-dimethyltetrahydro-1H-pyrrolizin-7a(5H)-methoxy)-2-(8-ethynyl-6-fluoronaphthalen-1-yl)-1-fluoro-5-methyl-5a,6,7,8,9,10-hexahydro-5H-4-oxa-3,10a,11,13,14-pentaaza-6,9-methanonaphtho[1,8-ab]heptene [Z551]	–	–	–	45.4 nM	61 nM	170 nM

Reference: US20260109714A1, “PYRIMIDINE-FUSED RING COMPOUND, AND PREPARATION METHOD THEREFOR AND USE THEREOF” (GENFLEET THERAPEUTICS (SHANGHAI) INC., priority 2022, published 2026)
